This note sets out measurements from patent publication US11001561B2, “Pyrimidinone derivatives as SHP2 antagonists” (MERCK PATENT GMBH, priority 2019, dated 2021).

Sequence of Full length SHP2 protein (Recombinant Human SHP-2) (Q06124 2-593): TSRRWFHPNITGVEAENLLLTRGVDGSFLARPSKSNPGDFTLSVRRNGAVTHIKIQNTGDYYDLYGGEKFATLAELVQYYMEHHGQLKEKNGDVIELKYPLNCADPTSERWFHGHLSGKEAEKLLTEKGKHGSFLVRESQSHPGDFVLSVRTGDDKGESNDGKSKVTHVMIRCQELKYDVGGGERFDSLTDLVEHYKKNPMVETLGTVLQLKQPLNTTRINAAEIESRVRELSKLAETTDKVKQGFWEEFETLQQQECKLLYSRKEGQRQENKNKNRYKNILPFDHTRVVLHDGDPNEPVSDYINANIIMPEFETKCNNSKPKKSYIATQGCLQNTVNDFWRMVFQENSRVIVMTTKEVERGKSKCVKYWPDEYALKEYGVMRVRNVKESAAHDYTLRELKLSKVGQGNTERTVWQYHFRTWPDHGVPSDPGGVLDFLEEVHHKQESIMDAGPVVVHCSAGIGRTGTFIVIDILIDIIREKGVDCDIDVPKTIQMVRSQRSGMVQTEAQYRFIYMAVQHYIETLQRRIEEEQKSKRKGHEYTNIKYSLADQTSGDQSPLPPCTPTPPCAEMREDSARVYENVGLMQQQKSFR

The first assay concerns the target Full length SHP2 protein (Recombinant Human SHP-2) (Homo sapiens (Human), UniProt Q06124). In words: SHP2 biochemical assay (DiFMUP substrate, activating peptide IRSI_2pY). Conditions: SHP-2 biochemical assay IC50 (μM), activating peptide IRSI_2pY 140 nM, DiFMUP, 60 min.
Experimental: The inhibition of SHP2 by compounds of the invention was monitored using the surrogate substrate DiFMUP after protein activation by a peptide bearing two appropriately spaced phosphotyrosine. […] The generation of the DiFMU product by activated SHP2 was monitored through Fluorescence measurement with a PerkinElmer Envision reader. The inhibitor dose response curves were analyzed with Genedata Screener.
One may read the IC50 as the concentration needed to halve the response being measured. For the molecule `Cc1nc(C2=CC[C@@](C)(N)CC2)cc(=O)n1-c1cccc(Cl)c1Cl` (racemic) [Compound 6b, (+/−)-(3P)-6-[(4S)-4-amino-4-methylcyclohex-1-en-1-yl]-3-(2,3-dichlorophenyl)-2-methyl-3,4-dihydropyrimidin-4-one], the IC50 is > 10 µM.

In the case of `Cc1nc(N(C)[C@H]2CC[C@@](C)(N)CC2)cc(=O)n1-c1cccc(Cl)c1Cl` (single isomer, unassigned) [Compound 71b, 3-(2,3-dichlorophenyl)-2-methyl-6-{methyl[(cis)-4-amino-4-methylcyclohexyl]amino}-3,4-dihydropyrimidin-4-one], the IC50 was 20 µM.

Regarding `Cc1nc(N2CCC[C@](N)(CC(F)F)CC2)cc(=O)n1-c1cccc(Cl)c1Cl` (racemic) [Compound 58b, (+/−)-(3P)-6-4-[(1R)-4-amino-4-(2,2-difluoroethyl)-azepan-1-yl]-3-(2,3-dichlorophenyl)-2-methyl-3,4-dihydropyrimidin-4-one], the IC50 is 1.3 µM.

Still in this assay, the particulars now being: activating peptide IRSI_2pY 140 nM, DiFMUP, 60 min; read-out: SHP-2 biochemical assay IC50.
Take `Cc1nc(N2CCN3C(=O)C(N)CC3C2)cc(=O)n1-c1cccc(Cl)c1Cl` (stereo not shown) [Compound 61, 6-7-amino-6-oxo-octahydropyrrolo[1,2-a]pyrazin-2-yl-3-(2,3-dichlorophenyl)-2-methyl-3,4-dihydropyrimidin-4-one]: the IC50 was > 10 µM.

In the case of `Cc1nc(N2C[C@H]3CC(O)C[C@@]3(CN)C2)cc(=O)n1-c1cccc(Cl)c1Cl` (stereo partly drawn) [Compound 59, 6-[(3aR,6aS)-3a-(aminomethyl)-5-hydroxy-octahydrocyclopenta[c]pyrrol-2-yl]-3-(2,3-dichlorophenyl)-2-methyl-3,4-dihydropyrimidin-4-one], the IC50 was found to be 2.6 µM.

On to `Cc1nc(N2CCC(C)(N)CC2)c(Cl)c(=O)n1-c1cccc(Cl)c1Cl` [Compound 10, 6-(4-amino-4-methylpiperidin-1-yl)-5-chloro-3-(2,3-dichlorophenyl)-2-methyl-3,4-dihydropyrimidin-4-one], for which the concentration for half-maximal inhibition (IC50) is 1.1 µM.

As to `CC1(N)CCN(c2cc(=O)n(-c3cccc(Cl)c3Cl)c(C(F)F)n2)CC1` [Compound 11, 6-(4-amino-4-methylpiperidin-1-yl)-3-(2,3-dichlorophenyl)-2-(difluoromethyl)-3,4-dihydropyrimidin-4-one], the IC50 worked out at 3.8 µM.

For `Cc1nc(N2CCC(C)(CN)CC2)cc(=O)n1-c1cccc(Cl)c1Cl` [Compound 4, 6-[4-(aminomethyl)-4-methylpiperidin-1-yl]-3-(2,3-dichlorophenyl)-2-methyl-3,4-dihydropyrimidin-4-one], the IC50 amounted to 0.26 µM.

As to `Cc1c(N2CCC(C)(CN)CC2)nc(N)n(-c2cccc(Cl)c2Cl)c1=O` [Compound 114, 2-Amino-6-(4-aminomethyl-4-methyl-piperidin-1-yl)-3-(2,3-dichloro-phenyl)-5-methyl-3H-pyrimidin-4-one], the IC50 was determined as 1.4 µM.

With `COCC(O)CNC1CCN(c2cc(=O)n(-c3cccc(Cl)c3Cl)c(C)n2)CC1` (stereo not shown) [Compound 46, 3-(2,3-dichlorophenyl)-6-{4-[(2-hydroxy-3-methoxypropyl)-amino]piperidin-1-yl}-2-methyl-3,4-dihydropyrimidin-4-one], the 50% inhibitory concentration (IC50) is > 10 µM.

`CNC1(C)CCN(c2cc(=O)n(-c3cccc(Cl)c3Cl)c(C)n2)CC1` [Compound 31, 3-(2,3-dichlorophenyl)-2-methyl-6-[4-methyl-4-(methylamino)piperidin-1-yl]-3,4-dihydropyrimidin-4-one]: the 50% inhibitory concentration (IC50) is 0.56 µM.

With `Cc1c(N2CCC3(CC2)CO[C@@H](C)[C@H]3N)nc(C)n(-c2cccc(Cl)c2Cl)c1=O` (single isomer, unassigned) [Compound 23a], the concentration for half-maximal inhibition (IC50) came out at 3.4 µM.

On to `Cc1nc(N2CCC3(CCC[C@H]3N)CC2)cc(=O)n1-c1cccc(Cl)c1Cl` (single isomer, unassigned) [Compound 62a], for which the IC50 is > 10 µM.
